Reference: patent USRE42890E1, “Furazanobenzimidazoles” (Basilea Pharmaceutica AG, priority 2003, dated 2011)

Legend:
Jurkat [1] = test: MTS proliferation assay, Jurkat; type: cell-based, human; details: 72 h incubation, read-out: MTS proliferation assay IC 50 Jurkat
How it was run: (§1)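 Seed cells (1.5*10^3-10^4/well) 24 h ahead; add compound, final 10/3/1/0.3 μM; incubate 72 h, 37 °C, 7.5% CO2; MTS 3 h; read A492.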

HeLa [2] = test: MTS proliferation assay, HeLa; type: cell-based, human; details: 72 h incubation, read-out: MTS proliferation assay IC 50 HeLa
How it was run: as §1

MRC5 = test: MTS proliferation assay, MRC5; type: cell-based; details: MRC5, 72 h incubation; read-out: MTS proliferation assay IC 50 MRC5
How it was run: (§2)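 RPMI-1640 + 5% or 10% FCS; seeded 24 h pre-dose; cpd final 10/3/1/0.3 μM, max 5% DMSO in added volume; 72 h, 37° C, 7.5% CO2; MTS 3 h; A492.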

Jurkat [3] = test: PI staining for cell cycle distribution, Jurkat; type: cell-based, human; design: key: 0: no effect; 1: weak effect; 2: strong effect; details: Jurkat 3 μM, 24 h
Procedure: (§3) Cell lines are cultured in RPMI-1640 tissue culture medium containing either 5% or 10% fetal calf serum, 0.05 mM 2-mercaptoethanol, 2 mM glutamine and penicillin/streptomycin 50 μg/ml (complete medium) (Sigma, Buchs, Switzerland). General growth conditions are 37° C. and 7.5% CO2.
(§4) The following human cell lines (either EGFP transfected or not) are being used: HeLa (ATCC: CCL-2), KB (ATCC: CCL-17), MCF7 (ATCC: HTB-22), SK-BR-3 (ATCC: HTB-30), SK-Mel 1 (ATCC: HTB-67), SK-Mel 28 (ATCC: HTB-72), PC-3 (ATCC: CRL-1435), SW 480 (ATCC: CCL-228), NCl-H460 (ATCC: HTB-177), NCl-H1792 (ATCC: CRL-5895), HT1080 (ATCC: CCL-21), Jurkat (ATCC: TIB-152), Ramos (ATCC: CRL-1596), Raji (ATCC: CCL-86), H9 (ATCC: HTB-176), Hut78 (ATCC: TIB-161), K562 (ATCC: CCL 243), HL-60 (ATCC: CCL 240), U-87MG (ATCC: HTB-14), HepG2 (ATCC: HB-8065), U-2 OS (ATCC: HTB-96), Saos-2 (ATCC: HTB-85), U937 (ATCC: CRL 1593), Hs 578T (ATCC: HTB 126), HBL-100 (ATCC: HTB 124), Molt-4 (ATCC: CRL 1582).
(§5) 1-2*10^5 cells are seeded into 24 well tissue culture plates and incubated for 24 h prior to compound addition. Compounds are added for 24 h in a final concentration of 3 μM or 10 μM. Adherent cells are harvested by trypsinization. The cell suspensions are fixed by adding 2 parts ice cold ethanol 100% while vortexing. Then the samples are stored for >2 h at −20° C. Subsequently the cells are washed with PBS once and resuspended in 250 μl PBS containing 50 μg/ml PI (Calbiochem # 537059), then the samples are incubated at 37° C. for 30 minutes and subsequently analyzed on a FACSCalibur™ monitoring linear PI fluorescence activity on FL2. The readout allows the detection of a possible direct or indirect influence of the tested compounds on the cell cycle. The following events can occur: a) Generation of a subG1 peak indicative for DNA fragmentation, b) increase of the cell population arrested in G2M phase. Both events are scored by 1 for weak and 2 for strong occurrence. 0 indicates no occurrence at all.

HeLa [4] = test: PI staining for cell cycle distribution, HeLa; type: cell-based, human; design: key: 0: no effect; 1: weak effect; 2: strong effect; details: HeLa 10 μM, 24 h
Procedure: as §3, §4, §5

[5] = system: adherent cells or suspension cells; test: Hoechst 33342 nuclear staining (fraction of apoptotic nuclei); type: cell-based; design: key: 0 relating to no activity; 1 relating to weak activity comprising less than 70% of the cells; score 2 relating to strong activity comprising more than 70% of the cells
Jily = test: MTS proliferation assay, Jily; type: cell-based; details: 72 h incubation, read-out: MTS proliferation assay IC 50 Jily
How it was run: as §2

HT1080 = test: MTS proliferation assay, HT1080; type: cell-based, human; details: HT1080, 72 h incubation; read-out: MTS proliferation assay IC 50 HT1080
How it was run: as §1

[6] = cell population arrested in G2M phase
[7] = subG1 peak indicative for DNA fragmentation

CON=C(Cn1c(-c2nonc2N)nc2ccccc21)c1ccc(Br)cc1 (mixture of isomers) [Example 30]
IC50 (Jurkat [1]): 100 to 1000 nM
IC50 (HeLa [2]): 100 to 1000 nM
IC50 (MRC5): 100 to 1000 nM
PI staining for cell cycle distribution, G2M (Jurkat [3]; [6]): 0
PI staining for cell cycle distribution, subG1 (Jurkat [3]; [7]): 0
PI staining for cell cycle distribution, G2M (HeLa [4]; [6]): 2
PI staining for cell cycle distribution, subG1 (HeLa [4]; [7]): 0
Hoechst 33342 nuclear staining score ([5]; H460, conc 0.01 μm): 0
Hoechst 33342 nuclear staining score ([5]; H460, conc 0.1 μm): 0
Hoechst 33342 nuclear staining score ([5]; H460, conc 1 μm): 0
Hoechst 33342 nuclear staining score ([5]; HeLa, conc 0.01 μm): 0
Hoechst 33342 nuclear staining score ([5]; HeLa, conc 0.1 μm): 0
Hoechst 33342 nuclear staining score ([5]; HeLa, conc 1 μm): 1 (1 relating to weak activity comprising less than 70% of the cells)
Hoechst 33342 nuclear staining score ([5]; Jily, conc 0.01 μm): 0
Hoechst 33342 nuclear staining score ([5]; Jily, conc 0.1 μm): 0
Hoechst 33342 nuclear staining score ([5]; Jily, conc 1 μm): 1 (1 relating to weak activity comprising less than 70% of the cells)
Hoechst 33342 nuclear staining score ([5]; Jurkat, conc 0.01 μm): 0
Hoechst 33342 nuclear staining score ([5]; Jurkat, conc 0.1 μm): 0
Hoechst 33342 nuclear staining score ([5]; Jurkat, conc 1 μm): 2 (score 2 relating to strong activity comprising more than 70% of the cells)
Hoechst 33342 nuclear staining score ([5]; MRC5, conc 0.01 μm): 0
Hoechst 33342 nuclear staining score ([5]; MRC5, conc 0.1 μm): 0
Hoechst 33342 nuclear staining score ([5]; MRC5, conc 1 μm): 2 (score 2 relating to strong activity comprising more than 70% of the cells)
Hoechst 33342 nuclear staining score ([5]; PBLs, conc 0.01 μm): 0
Hoechst 33342 nuclear staining score ([5]; PBLs, conc 0.1 μm): 0
Hoechst 33342 nuclear staining score ([5]; PBLs, conc 1 μm): 0

Nc1ccc(C(=O)Cn2c(-c3nonc3N)nc3ccccc32)cn1 [Example 78]
IC50 (Jurkat [1]): < 10 nM
IC50 (Jily): < 10 nM
IC50 (HT1080): < 10 nM
IC50 (HeLa [2]): < 10 nM
IC50 (MRC5): < 10 nM
Hoechst 33342 nuclear staining score ([5]; H460, conc 0.01 μm): 2 (score 2 relating to strong activity comprising more than 70% of the cells)
Hoechst 33342 nuclear staining score ([5]; H460, conc 0.1 μm): 2 (score 2 relating to strong activity comprising more than 70% of the cells)
Hoechst 33342 nuclear staining score ([5]; H460, conc 1 μm): 2 (score 2 relating to strong activity comprising more than 70% of the cells)
Hoechst 33342 nuclear staining score ([5]; HeLa, conc 0.01 μm): 2 (score 2 relating to strong activity comprising more than 70% of the cells)
Hoechst 33342 nuclear staining score ([5]; HeLa, conc 0.1 μm): 2 (score 2 relating to strong activity comprising more than 70% of the cells)
Hoechst 33342 nuclear staining score ([5]; HeLa, conc 1 μm): 2 (score 2 relating to strong activity comprising more than 70% of the cells)
Hoechst 33342 nuclear staining score ([5]; Jily, conc 0.01 μm): 2 (score 2 relating to strong activity comprising more than 70% of the cells)
Hoechst 33342 nuclear staining score ([5]; Jily, conc 0.1 μm): 2 (score 2 relating to strong activity comprising more than 70% of the cells)
Hoechst 33342 nuclear staining score ([5]; Jily, conc 1 μm): 2 (score 2 relating to strong activity comprising more than 70% of the cells)
Hoechst 33342 nuclear staining score ([5]; Jurkat, conc 0.01 μm): 2 (score 2 relating to strong activity comprising more than 70% of the cells)
Hoechst 33342 nuclear staining score ([5]; Jurkat, conc 0.1 μm): 2 (score 2 relating to strong activity comprising more than 70% of the cells)
Hoechst 33342 nuclear staining score ([5]; Jurkat, conc 1 μm): 2 (score 2 relating to strong activity comprising more than 70% of the cells)
Hoechst 33342 nuclear staining score ([5]; MRC5, conc 0.01 μm): 1 (1 relating to weak activity comprising less than 70% of the cells)
Hoechst 33342 nuclear staining score ([5]; MRC5, conc 0.1 μm): 2 (score 2 relating to strong activity comprising more than 70% of the cells)
Hoechst 33342 nuclear staining score ([5]; MRC5, conc 1 μm): 2 (score 2 relating to strong activity comprising more than 70% of the cells)
Hoechst 33342 nuclear staining score ([5]; PBLs, conc 0.01 μm): 0
Hoechst 33342 nuclear staining score ([5]; PBLs, conc 0.1 μm): 0
Hoechst 33342 nuclear staining score ([5]; PBLs, conc 1 μm): 0

Nc1ccc(C(=O)Cn2c(-c3nonc3N)nc3ccccc32)cc1[N+](=O)[O-] [Example 65]
IC50 (Jurkat [1]): < 10 nM
IC50 (Jily): < 10 nM
IC50 (HT1080): < 10 nM
IC50 (HeLa [2]): 10 to 100 nM
IC50 (MRC5): < 10 nM
Hoechst 33342 nuclear staining score ([5]; H460, conc 0.01 μm): 2 (score 2 relating to strong activity comprising more than 70% of the cells)
Hoechst 33342 nuclear staining score ([5]; H460, conc 0.1 μm): 2 (score 2 relating to strong activity comprising more than 70% of the cells)
Hoechst 33342 nuclear staining score ([5]; H460, conc 1 μm): 2 (score 2 relating to strong activity comprising more than 70% of the cells)
Hoechst 33342 nuclear staining score ([5]; HeLa, conc 0.01 μm): 0
Hoechst 33342 nuclear staining score ([5]; HeLa, conc 0.1 μm): 2 (score 2 relating to strong activity comprising more than 70% of the cells)
Hoechst 33342 nuclear staining score ([5]; HeLa, conc 1 μm): 2 (score 2 relating to strong activity comprising more than 70% of the cells)
Hoechst 33342 nuclear staining score ([5]; Jily, conc 0.01 μm): 2 (score 2 relating to strong activity comprising more than 70% of the cells)
Hoechst 33342 nuclear staining score ([5]; Jily, conc 0.1 μm): 2 (score 2 relating to strong activity comprising more than 70% of the cells)
Hoechst 33342 nuclear staining score ([5]; Jily, conc 1 μm): 2 (score 2 relating to strong activity comprising more than 70% of the cells)
Hoechst 33342 nuclear staining score ([5]; Jurkat, conc 0.01 μm): 2 (score 2 relating to strong activity comprising more than 70% of the cells)
Hoechst 33342 nuclear staining score ([5]; Jurkat, conc 0.1 μm): 2 (score 2 relating to strong activity comprising more than 70% of the cells)
Hoechst 33342 nuclear staining score ([5]; Jurkat, conc 1 μm): 2 (score 2 relating to strong activity comprising more than 70% of the cells)
Hoechst 33342 nuclear staining score ([5]; MRC5, conc 0.01 μm): 0
Hoechst 33342 nuclear staining score ([5]; MRC5, conc 0.1 μm): 2 (score 2 relating to strong activity comprising more than 70% of the cells)
Hoechst 33342 nuclear staining score ([5]; MRC5, conc 1 μm): 2 (score 2 relating to strong activity comprising more than 70% of the cells)
Hoechst 33342 nuclear staining score ([5]; PBLs, conc 0.01 μm): 0
Hoechst 33342 nuclear staining score ([5]; PBLs, conc 0.1 μm): 0
Hoechst 33342 nuclear staining score ([5]; PBLs, conc 1 μm): 0

Nc1ccc(OCn2c(-c3nonc3N)nc3ccccc32)cc1 [Example 99]
IC50 (Jurkat [1]): 100 to 1000 nM
IC50 (Jily): 100 to 1000 nM
IC50 (HT1080): > 1000 nM
IC50 (HeLa [2]): > 1000 nM
IC50 (MRC5): > 1000 nM
Hoechst 33342 nuclear staining score ([5]; H460, conc 0.01 μm): 0
Hoechst 33342 nuclear staining score ([5]; H460, conc 0.1 μm): 0
Hoechst 33342 nuclear staining score ([5]; H460, conc 1 μm): 0
Hoechst 33342 nuclear staining score ([5]; HeLa, conc 0.01 μm): 0
Hoechst 33342 nuclear staining score ([5]; HeLa, conc 0.1 μm): 0
Hoechst 33342 nuclear staining score ([5]; HeLa, conc 1 μm): 0
Hoechst 33342 nuclear staining score ([5]; Jily, conc 0.01 μm): 0
Hoechst 33342 nuclear staining score ([5]; Jily, conc 0.1 μm): 0
Hoechst 33342 nuclear staining score ([5]; Jily, conc 1 μm): 1 (1 relating to weak activity comprising less than 70% of the cells)
Hoechst 33342 nuclear staining score ([5]; Jurkat, conc 0.01 μm): 0
Hoechst 33342 nuclear staining score ([5]; Jurkat, conc 0.1 μm): 0
Hoechst 33342 nuclear staining score ([5]; Jurkat, conc 1 μm): 1 (1 relating to weak activity comprising less than 70% of the cells)
Hoechst 33342 nuclear staining score ([5]; MRC5, conc 0.01 μm): 0
Hoechst 33342 nuclear staining score ([5]; MRC5, conc 0.1 μm): 0
Hoechst 33342 nuclear staining score ([5]; MRC5, conc 1 μm): 0
Hoechst 33342 nuclear staining score ([5]; PBLs, conc 0.01 μm): 0
Hoechst 33342 nuclear staining score ([5]; PBLs, conc 0.1 μm): 0
Hoechst 33342 nuclear staining score ([5]; PBLs, conc 1 μm): 0
